Laboratory results taken from US20250197355A1, “TEAD Targeting Compounds and Methods Thereof” (Agency for Science, Technology and Research, priority 2022, published 2025).

Tests used:
Format in all cases: cell-based
[1] = test system: hippo signaling target proteins (TEAD4, Pan-TEADs, YAP, TAZ); experiment: Immunoblotting of hippo signaling target proteins in A549 whole cell lysates; conditions: A549 cells, 24 hrs
Experimental: Method: A549 cells (at 60% confluency) either mock treated or treated with indicated doses of CPD10 and CPD13 for 24 hrs. Cells were washed with ice-cold 1×PBS and lysed in protein lysis buffer. Whole cell lysates were quantified by Pierce™ BCA Protein assay kit (Catalog number: 23225) and denatured in 4×LDS buffer (Thermo catalog number: NP0007) added with competing amount of DTT followed by boiling for 3 minutes. Samples were resolved in 8% of SDS-PAGE, transferred onto nitrocellulose membrane and immunoblotting was performed with indicated antibodies.
Result: To determine the CPD10 and CPD13 mediated expression of hippo signaling target proteins in A549 cells, whole cell lysates from mock treated and compounds treated cells were immunoblotted to determine the level of TEAD4, Pan-TEADs, YAP, TAZ proteins. […] Similar to CPD10, CPD13 downregulate YAP expression at 10 Um (B). To determine the level of other transcriptional targets, we tested the p53 protein in same sets of protein samples. […] GAPDH was used as loading control.

[2] = target: T1, TEAD4 binding to YAP and TAZ (Homo sapiens, UniProt Q15561); experiment: GFP-TRAP assay to pull down TEAD4 binders in U20S cells expressing GFP fused TEAD4; conditions: U20S cells expressing GFP fused TEAD4, 10 uM
T1 construct: expressed in transfected cells
Experimental: GFP-TRAP assay: To purify TEAD4 binders, GFP-Trap Magnetic Agarose (gtma-100) was used, and assay was performed strictly according to manufacturer's instructions. At the end of the assay, agarose beads were resuspended in 2×LDS lysis buffer, competing amount of DTT was added into it and samples were boiled for 3 minutes. Supernatants were collected and used for immunoblotting.
To determine whether CPD10 or 13 leads downregulation of TEAD4 binding to its transcriptional targets YAP and TAZ, U20S cells stably expressing GFP alone and GFP fused TEAD4 were either mock-treated or treated with indicated doses of CPD10. GFP-TRAP assay was performed to pull down TEAD4 binders, and immunoblotted. As one of the strong binders of the TEAD4, YAP/TAZ protein signal were detected in purified complex. […] The GFP blot indicating the GFP and GFP fused TEAD4 signal in whole cell lysates and purified protein samples (C).

[3] = test system: TEADs transcriptional target genes; experiment: RT PCR transcriptional profiling of TEADs target genes in A549 cells
Experimental: Method: A549 cells (at 60% confluency) either mock treated or treated with indicated doses of CPD 10 and CPD13 for 24 hrs. Cells were washed with ice-cold 1×PBS. RNA extraction was performed with Quick-RNA™ miniprep kit (Zymo Research, Cat. No. R1055), strictly according to manufacturer's instructions. Nanodrop quantified 2 μg of RNA samples were used for cDNA synthesis with cDNA Reverse Transcription Kit (Thermo Cat. No. 4368814) strictly according to the manufacturer's instructions. In RT PCR experiment, comparative target gene expression was performed by SYBR™ Green (Thermo Cat. No. 4309155) Master mix. Relative target gene expressions were compared and plotted on Y-Axis.
Result: Relative expression of YAP and TAZ in response to low dose of CPD10 (A) and CPD13 (B) treatment in A549 cells. c-MYC was included as non-transcriptional target of the TEADs. NFKB1 was included as its expression is reciprocal to the YAP/TAZ. Downstream effectors of the TEADs targets (CYR61, AXL, CTGF and ANKRD1) were determined in responses to 2.5, 5 and 10 μM of CPD10 (C) and CPD13 (D).
CPD10 and CPD13 Downregulate the TEADs transcriptional target genes: To determine CPD10 and CPD13 induced relative expression of TEADs target genes, A549 cells were treated with indicated doses for 24 hrs. Transcriptional profiling was performed with respective primer pairs. […] Further we tested the expression of one of the strong non hippo transcription factor, the C-Myc. As expected, c-MYC expression was not affected in response to CPD10 treatment (A). […] C-Myc expression was not affected. […] An Increase of NFKB1 expression is consistent with significant downregulation of YAP expression in response to CPD13 treatment (B). To determine the state of TEADs transcriptional target genes at higher concentrations, A549 cells were treated with indicated doses of compounds and analyzed for the expression of CYR61, AXL, CTGF and ANKRD1.

U20S cells = experiment: Cell proliferation assay (Cell Titre Glow) in U20S cells
Experimental: Method: Indicated cells were plated at 3000 cells/80 μl in each well. TEAD4 depletion was performed by reverse transfection with 20 nM of Dharmacon smart pool NTsiRNA and TEAD4 siRNA in 0.25 ul of lipofectamine mixed with 25% of OPTIMEM. After 18 hrs of transfection, cells were recovered for 24 hrs in fresh DMEM medium. Cells were treated with indicated compounds at different doses. After 48 hrs of dosing cells were recovered in fresh medium for 3 days. Cell Titre Glow (CTG) assay was used.
U20S cells stably expressing GFP fused TEAD4 and GFP alone were treated with different doses of CPD10 and analysed for cellular proliferation. […] Further we used cell lines expressing higher level of TEAD4 and performed depletion experiment followed by comparative sensitivity analysis.

YAP-TEAD binding = target: T2, YAP-TEAD binding (Homo sapiens, UniProt Q15561); experiment: Endogenous TEAD4 immunoprecipitation in NCI-H226 mesothelioma cells; conditions: 24 hrs, indicated concentrations
T2 construct: Endogenous TEAD4 IP; endogenous in cells; host or cells: NCI-H226 mesothelioma cells
Experimental: Evaluation of CPD10 and CPD13 in NCI-H226 mesothelioma cell line: Actively growing cells were either DMSO added or treated with indicated concentrations of CPD10 and CPD13 for 24 hrs. Cells were collected in ice-cold PBS and pellets were lysed in IP Lysis Buffer (25 mM Tris-HCl pH 7.4, 150 mM NaCl, 1 mM EDTA, 1% NP-40 and 5% glycerol and competing amount of protease inhibitor). Samples were lysed by sonication, BCA assay was performed and equal concentration of protein were added with TEAD4 antibody (3 ul). After overnight incubation in cold room, samples were added with anti-rabbit magnetic beads to trap the TEAD and binding complex for 2 hrs. Samples were washed 3 times and bound fraction were collected with the help of magnetic stand. Samples were added with 4×LDS, competing amount of DTT, and boiled for 3 minutes. Whole cell lysate (Input) and IP samples were resolved in 8% SDS-PAGE gel and immunoblotted with indicated antibodies.
Relative quantification of immunoblot signals were quantified with IMAGE J software. Actively growing cells were added with indicated concentrations of CPD10 and CPD13 and cells were collected after 24 hrs. RNA was extracted and cDNA was synthesized. Indicated primer pairs were used for RT-PCR. Relative gene expression was determined by using GAPDH amplification.

T2 sequence (Q15561 whole entry): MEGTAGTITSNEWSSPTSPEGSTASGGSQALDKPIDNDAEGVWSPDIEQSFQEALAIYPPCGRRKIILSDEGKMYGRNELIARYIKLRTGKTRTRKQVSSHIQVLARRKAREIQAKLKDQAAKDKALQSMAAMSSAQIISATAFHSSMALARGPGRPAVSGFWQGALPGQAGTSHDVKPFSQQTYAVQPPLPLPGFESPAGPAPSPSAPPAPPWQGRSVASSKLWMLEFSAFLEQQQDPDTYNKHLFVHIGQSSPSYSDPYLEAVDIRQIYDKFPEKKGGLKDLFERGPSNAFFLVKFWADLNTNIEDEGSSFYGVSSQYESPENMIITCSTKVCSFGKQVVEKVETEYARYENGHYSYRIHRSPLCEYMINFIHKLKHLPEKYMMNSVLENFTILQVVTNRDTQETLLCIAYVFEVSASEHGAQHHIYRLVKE
T1 sequence (Q15561 whole entry, the tested form may be a part): as the sequence (Q15561 whole entry) above

Q: What does the source list for `C=CS(=O)(=O)CCC(=O)Nc1nn(-c2ccccc2)cc1C` [CPD10]?
A: TAZ expression (immunoblot) ([1]; 10 Um): significantly reduced; TEAD4 and pan-TEAD expression (immunoblot) ([1]; highest concentration): reduced; YAP expression (immunoblot) ([1]; indicated doses): downregulated in a dose dependent manner; wild type p53 expression (immunoblot) ([1]; same protein samples): didn't resulted in change; YAP/TAZ binding to TEAD4 (GFP-TRAP pull down, immunoblot) [2]: significantly reduced; ANKRD1 relative expression (RT PCR) ([3]; 24 hrs, 10 μM): significantly reduced; AXL relative expression (RT PCR) ([3]; 24 hrs, 2.5, 5 and 10 μM): suppressed at 2.5 μM and subsequently downregulated in a dose dependent manner; CTGF relative expression (RT PCR) ([3]; 24 hrs, 2.5, 5 and 10 μM): suppressed at 2.5 μM and subsequently downregulated in a dose dependent manner; CYR61 relative expression (RT PCR) ([3]; 24 hrs, 2.5, 5 and 10 μM): suppressed at 2.5 μM and subsequently downregulated in a dose dependent manner; NFKB1 relative expression (RT PCR) ([3]; 24 hrs, low dose): minor increase; c-MYC relative expression (RT PCR) ([3]; 24 hrs, low dose): not affected; YAP/TAZ relative expression (RT PCR) ([3]; 24 hrs, low dose (2.5 μM of CPD10)): downregulated; cellular proliferation sensitivity (U20S cells; U20S cells expressing GFP alone, low dose): didn't display sensitivity; cellular proliferation sensitivity (U20S cells; U20S cells overexpressing GFP-TEAD4, below 5 uM): higher sensitivity; YAP-TEAD binding (TEAD4 IP, immunoblot) (YAP-TEAD binding): disrupted to a great extent
